# Experimental data published in patent US20040063729A1, “Triazolopyrimidines” (priority 2000, published 2004).
# Test system: Kidney beans (variety:Serina)
# Experiment: Phytotoxicity tested at the same time in the foliar spray test
# Assay type: in vivo
# Conditions: active compound concentration of 500 ppm; foliar spray on kidney beans
# Description: Kidney beans (variety:Serina) were cultivated in plastic pots each having a diameter of 6 cm. The previously prepared solution of the prescribed concentration of active compound was sprayed over the plants in the 1 leaf stage at a rate of 20 ml per pot. One day after spraying, a gel obtained by mixing a suspension of spores of artificially cultured Botrytis cinera and PDA medium was added dropwise to the removed first leaf for infection in a plastic box having a size of 20 while maintaining humidity. 5 days after the inoculation, the infection rate per pot was classified and evaluated according to the following standard, and the control value (%) was calculated. Phytotoxicity was tested at the same time. This test is an average of the results of 3 replications. The evaluation of the infection rate and the calculation method of the control value were conducted as follows: […]
row,Structure (SMILES),Phytotoxicity
1,Fc1ccc(Cc2c(Cl)nc3ncnn3c2Cl)c(F)c1F [I-6],No phytotoxicity
2,Fc1ccc(F)c(Cc2c(Cl)nc3ncnn3c2Cl)c1F [I-11],No phytotoxicity
3,Fc1cc(F)c(Cc2c(Cl)nc3ncnn3c2Cl)cc1F [I-18],No phytotoxicity
4,Fc1cc(F)c(Cc2c(Cl)nc3ncnn3c2Cl)c(F)c1 [I-20],No phytotoxicity
5,FC(F)(F)c1cccc(Cc2c(Cl)nc3ncnn3c2Cl)c1 [I-73],No phytotoxicity
6,Cc1cccc(Cc2c(Cl)nc3ncnn3c2Cl)c1 [I-75],No phytotoxicity
7,Clc1cccc(Cc2c(Cl)nc3ncnn3c2Cl)c1 [I-76],No phytotoxicity
8,Cc1ccc(Cc2c(Cl)nc3ncnn3c2Cl)cc1 [I-94],No phytotoxicity
9,"Clc1ccc(Cc2c(Cl)nc3ncnn3c2Cl)cc1 [I-95, 5,7-dichloro-6-(4-chlorobenzyl)[1,2,4]triazolo[1,5-a]pyrimidine]",No phytotoxicity
10,FC(F)(F)Oc1ccc(Cc2c(Cl)nc3ncnn3c2Cl)cc1 [I-104],No phytotoxicity
11,Clc1nc2ncnn2c(Cl)c1Cc1ccccc1 [I-110],No phytotoxicity
12,CC(c1ccccc1)c1c(Cl)nc2ncnn2c1Cl (stereo not shown) [I-112],No phytotoxicity
13,Clc1cccc(Cc2cnc3ncnn3c2Cl)c1Cl [I-142],No phytotoxicity
14,Clc1ccc(Cc2cnc3ncnn3c2Cl)cc1Cl [I-146],No phytotoxicity

# Test system: not given
# Experiment: not given
# Conditions: not given
row,melting point [°C],Structure (SMILES)
1,165 to 167,"Clc1ccc(Cc2c(Cl)nc3ncnn3c2Cl)cc1 [I-95, 5,7-dichloro-6-(4-chlorobenzyl)[1,2,4]triazolo[1,5-a]pyrimidine]"
2,123 to 127,"Clc1c(Cc2ccccc2)cnc2ncnn12 [I-111, 6-benzyl-7-chloro[1,2,4]triazolo[1,5-a]pyrimidine]"
